Target: T1, hFXR (Homo sapiens, UniProt Q96RI1)
T1 construct: expressed in transfected cells; host or cells: CV-1 cells
T1 sequence (Q96RI1 1-486): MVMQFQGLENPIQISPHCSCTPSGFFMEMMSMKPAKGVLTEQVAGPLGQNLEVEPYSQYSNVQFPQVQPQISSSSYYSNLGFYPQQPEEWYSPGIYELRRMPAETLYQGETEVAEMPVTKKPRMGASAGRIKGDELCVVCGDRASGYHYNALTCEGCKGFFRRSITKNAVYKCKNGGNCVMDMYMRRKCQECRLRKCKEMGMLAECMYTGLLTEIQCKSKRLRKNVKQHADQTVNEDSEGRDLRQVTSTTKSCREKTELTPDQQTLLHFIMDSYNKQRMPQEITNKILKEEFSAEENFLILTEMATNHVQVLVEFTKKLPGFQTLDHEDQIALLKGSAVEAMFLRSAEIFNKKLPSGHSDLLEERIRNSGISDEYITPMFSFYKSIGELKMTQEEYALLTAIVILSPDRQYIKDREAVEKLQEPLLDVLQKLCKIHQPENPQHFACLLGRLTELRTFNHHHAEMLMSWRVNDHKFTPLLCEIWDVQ
T1 sequence (P19793 1-462 partner): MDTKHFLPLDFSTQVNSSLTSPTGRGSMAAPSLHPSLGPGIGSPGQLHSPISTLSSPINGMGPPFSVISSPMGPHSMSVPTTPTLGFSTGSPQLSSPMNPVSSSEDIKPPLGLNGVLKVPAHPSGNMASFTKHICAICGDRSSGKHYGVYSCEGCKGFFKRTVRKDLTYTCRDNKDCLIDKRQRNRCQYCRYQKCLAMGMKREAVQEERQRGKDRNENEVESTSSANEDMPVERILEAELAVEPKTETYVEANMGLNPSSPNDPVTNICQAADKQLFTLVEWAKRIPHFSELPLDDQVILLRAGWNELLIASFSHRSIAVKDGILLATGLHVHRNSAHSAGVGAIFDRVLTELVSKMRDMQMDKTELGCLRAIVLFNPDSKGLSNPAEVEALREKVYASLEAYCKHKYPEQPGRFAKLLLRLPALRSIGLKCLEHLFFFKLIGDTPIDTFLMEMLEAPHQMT
Test: In Vitro FXR Assay (TK): TK-ECRE-luc reporter in transfected CV-1 cells
Format: cell-based
Settings: 18 hrs incubation, luminescence
Method in brief: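 Transactivation is scored as luminescence in CV-1 cell lysates. The cells, co-transfected with hFXR/hRXR and a TK-ECRE-luc reporter, are exposed to DMSO-diluted compounds for 18 h.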

| SMILES | EC50 [nM] |
| --- | --- |
| COc1ccc(C23CCC(CN(c4cc(-c5cnn(C(C)C)c5)ccn4)C(=O)[C@H]4CC[C@H](OC(=O)NC5COC5)CC4)(CC2)CC3)cc1C [Compound 4.13, 4-((4-(1-Isopropyl-1H-pyrazol-4-yl)pyridin-2-yl)((4-(4-methoxy-3-methylphenyl)bicyclo [2.2.2]octan-1-yl)methyl)carbamoyl)cyclohexyl trans-oxetan-3-ylcarbamate] | ≤ 50 |
| COc1ccc(C23CCC(CN(C(=O)N4CCC(OC(=O)N5CC(O)C5)CC4)c4cc(-c5cnn(C(C)C)c5)ccn4)(CC2)CC3)cc1C [Compound 27, 1-((4-(1-Isopropyl-1H-pyrazol-4-yl)pyridin-2-yl)((4-(4-methoxy-3-methylphenyl)bicyclo[2.2.2]octan-1-yl)methyl)carbamoyl)piperidin-4-yl 3-hydroxyazetidine-1-carboxylate] | ≤ 50 |
| COc1ccc([C@H]2CC[C@H](CN(c3cc(-c4cnn(C(C)C)c4)ccn3)C(=O)[C@H]3CC[C@H](OC(=O)N4CCN(C)CC4)CC3)CC2)cc1Cl [Compound 2.06, trans-4-(((trans-4-(3-Chloro-4-methoxyphenyl)cyclohexyl)methyl)(4-(1-isopropyl-1H-pyrazol-4-yl)pyridin-2-yl)carbamoyl)cyclohexyl 4-methylpiperazine-1-carboxylate] | ≤ 50 |
| COc1ccc(C23CCC(CN(c4cc(-c5coc(C6CC6)n5)ccn4)C(=O)[C@H]4CC[C@H](OC(=O)N5CC(CO)C5)CC4)(CC2)CC3)cc1C [Compound 4.31, 4-((4-(2-Cyclopropyloxazol-4-yl)pyridin-2-yl)((4-(4-methoxy-3-methylphenyl)bicyclo[2.2.2]octan-1-yl)methyl)carbamoyl)(trans-cyclohexyl) 3-(hydroxymethyl)azetidine-1-carboxylate] | ≤ 50 |
| COCC1CN(C(=O)O[C@H]2CC[C@H](C(=O)N(CC34CCC(c5ccc(OC)c(C)c5)(CC3)CC4)c3cc(-c4cnn(C(C)C)c4)ccn3)CC2)C1 [Compound 4.41, 4-((4-(1-Isopropyl-1H-pyrazol-4-yl)pyridin-2-yl) ((4-(4-methoxy-3-methylphenyl)bicyclo [2.2.2]octan-1-yl)methyl)carbamoyl)cyclohexyl trans-3-(methoxymethyl) azetidine-1-carboxylate] | ≤ 50 |
| COc1ccc(C23CCC(CN(c4cc(-c5cnc(C(C)C)s5)ccn4)C(=O)[C@H]4CC[C@H](OC(=O)NC5COC5)CC4)(CC2)CC3)cc1C [Compound 4.35, 4-((4-(2-Isopropylthiazol-5-yl)pyridin-2-yl)((4-(4-methoxy-3-methylphenyl)bicyclo[2.2.2]octan-1-yl)methyl)carbamoyl)(trans-cyclohexyl) oxetan-3-ylcarbamate] | ≤ 50 |
| COc1ccc(C23CCC(CN(c4cc(-c5coc(C(C)C)n5)ccn4)C(=O)[C@H]4CC[C@H](OC(=O)N5CC(O)C5)CC4)(CC2)CC3)cc1C [Compound 4.23, 4-((4-(2-Isopropyloxazol-4-yl)pyridin-2-yl)((4-(4-methoxy-3-methylphenyl)bicyclo[2.2.2]octan-1-yl)methyl)carbamoyl) cyclohexyl 3-hydroxyazetidine-trans-1-carboxylate] | ≤ 50 |
| COc1ccc([C@H]2CC[C@H](CN(c3cccc(-c4cnn(C(C)C)c4)c3)C(=O)[C@H]3CC[C@H](CN)CC3)CC2)cc1C [Compound 11, (trans)-4-(Aminomethyl)-N-(3-(1-isopropyl-1H-pyrazol-4-yl)phenyl)-N-(((trans)-4-(4-methoxy-3-methylphenyl)cyclohexyl)methyl)cyclohexanecarboxamide] | 1000 to 10000 |
| COc1ccc([C@H]2CC[C@H](CN(c3cc(-c4cnn(C(C)C)c4)ccn3)C(=O)[C@H]3CC[C@H](OC(=O)N4CCOCC4)CC3)CC2)cc1C [Compound 2.16, trans-4-((4-(1-Isopropyl-1H-pyrazol-4-yl)pyridin-2-yl)(((trans)-4-(4-methoxy-3-methylphenyl)cyclohexyl)methyl)carbamoyl)cyclohexyl morpholine-4-carboxylate] | ≤ 50 |
| COc1ccc([C@H]2CC[C@H](CN(c3cc(-c4cnc(C5CC5)o4)ccn3)C(=O)[C@H]3CC[C@H](OC(=O)NCC(C)(C)O)CC3)CC2)cc1C [Compound 2.50, trans-4-((4-(2-Cyclopropyloxazol-5-yl)pyridin-2-yl)((trans-4-(4-methoxy-3-methylphenyl)cyclohexyl)methyl)carbamoyl)cyclohexyl (2-hydroxy-2-methylpropyl)carbamate] | ≤ 50 |

Next, values leading:

| EC50 [nM] | SMILES |
| --- | --- |
| ≤ 50 | COc1ccc(C23CCC(CN(c4cc(-c5cnn(C(C)C)c5)c(F)cn4)C(=O)[C@H]4CC[C@H](OC(=O)N5CC(CS(C)(=O)=O)C5)CC4)(CC2)CC3)cc1C [Compound 25.07, 4-((5-Fluoro-4-(1-isopropyl-1H-pyrazol-4-yl)pyridin-2-yl)((4-(4-methoxy-3-methylphenyl)bicyclo[2.2.2]octan-1-yl)methyl)carbamoyl)cyclohexyl trans-3-((methylsulfonyl)methyl)azetidine-1-carboxylate] |
| ≤ 50 | COc1ccc(C23CCC(CN(c4cc(-c5cnn(C(C)C)c5)ccn4)C(=O)[C@H]4CC[C@H](NC(=O)OC5CCOCC5)CC4)(CC2)CC3)cc1C [Compound 7.03, (trans)-Tetrahydro-2H-pyran-4-yl (4-((4-(1-isopropyl-1H-pyrazol-4-yl)pyridin-2-yl)((4-(4-methoxy-3-methylphenyl)bicyclo[2.2.2]octan-1-yl)methyl)carbamoyl)cyclohexyl) carbamate] |
| 50 to 1000 | CS(=O)(=O)c1ccc([C@H]2CC[C@H](CN(c3cccc(-c4cnc(C5CC5)s4)c3)C(=O)[C@H]3CC[C@H](OC(=O)N4CC(O)C4)CC3)CC2)cc1 [Compound 5.15, trans-4-((3-(2-Cyclopropylthiazol-5-yl)phenyl)((trans-4-(4-(methylsulfonyl)phenyl)cyclohexyl)methyl)carbamoyl)cyclohexyl 3-hydroxyazetidine-1-carboxylate] |
| ≤ 50 | COc1ccc(C23CCC(CN(c4cc(-c5coc(C(C)C)n5)ccn4)C(=O)[C@H]4CC[C@H](OC(=O)N5CC(OCCO)C5)CC4)(CC2)CC3)cc1C [Compound 23.05, 4-((4-(2-Isopropyloxazol-4-yl)2-yl)((4-(4-methoxy-3-methylphenyl)bicyclo[2.2.2]octan-1-yl)methyl)carbamoyl)(trans-cyclohexyl) 3-(2-hydroxyethoxy)azetidine-1-carboxylatepyridin-] |
| ≤ 50 | COCC(=O)N[C@H]1CC[C@H](C(=O)N(CC23CCC(c4ccc(OC)c(C)c4)(CC2)CC3)c2cc(-c3cnc(C4CC4)s3)ccn2)CC1 [Compound 9.07, (trans)-N-(4-(2-Cyclopropylthiazol-5-yl)pyridin-2-yl)-N-((4-(4-methoxy-3-methylphenyl)bicyclo[2.2.2]octan-1-yl)methyl)-4-(2-methoxyacetamido)cyclohexanecar-boxamide] |
| ≤ 50 | COc1ccc(C23CCC(CN(c4cc(-c5ccn(C(C)C)n5)ccn4)C(=O)[C@H]4CC[C@H](OC(=O)N5CC(O)C5)CC4)(CC2)CC3)cc1C [Compound 23.16, 4-((4-(1-Isopropyl-1H-pyrazol-3-yl)pyridin-2-yl)((4-(4-methoxy-3-methylphenyl)bicyclo[2.2.2]octan-1-yl)methyl)carbamoyl)cyclo-hexyl trans-3-hydroxyazetidine-1-carboxylate] |
| ≤ 50 | COc1ccc(C23CCC(CN(c4cc(-c5cnc(C(C)C)s5)ccn4)C(=O)[C@H]4CC[C@H](NC(C)=O)CC4)(CC2)CC3)cc1C [Compound 9.04, (trans)-4-Acetamido-N-(4-(2-isopropylthiazol-5-yl)pyridin-2-yl)-N-((4-(4-methoxy-3-methylphenyl)bicyclo[2.2.2]octan-1-yl)methyl)cyclohexanecarboxamide] |
| ≤ 50 | COc1ccc(C23CCC(CN(c4cc(-c5coc(C(C)C)n5)ccn4)C(=O)[C@H]4CC[C@H](OC(=O)N5CC(CO)C5)CC4)(CC2)CC3)cc1C [Compound 23.01, 4-((4-(2-Isopropyloxazol-4-yl)pyridin-2-yl)((4-(4-methoxy-3-methylphenyl)bicyclo[2.2.2]octan-1-yl)methyl)carbamoyl)(trans-cyclohexyl) 3-(hydroxymethyl)azetidine-1-carboxylate] |
| ≤ 50 | CCCNC(=O)O[C@H]1CC[C@H](C(=O)N(C[C@H]2CC[C@H](c3ccc(OC)c(C)c3)CC2)c2cccc(-c3cnn(C(C)C)c3)c2)CC1 [Compound 5.03, trans-4-((3-(1-Isopropyl-1H-pyrazol-4-yl)phenyl)(((trans)-4-(4-methoxy-3-methylphenyl)cyclohexyl)methyl)carbamoyl)cyclohexyl propylcarbamate] |
